Assay: recombinant UMI read abundance after kanamycin selection (control-corrected) (log10(CPM+1)); higher = more efficient recombination; extreme values may be limits of the assay; sequences stand for … in AGTGCAGAGAAAATCGGCCAGTTTTCTCTGCCTGCAGTCCGCATGCCGTGGGACCCCTTGGGTTCTAACCTGTTGCCTAGATTTATGCAGCGGACTGCCTTTCTCCCAAAGTGATAAACCGG…AGGTTGGTTTCACT; site = the 11-nt donor
Method in brief: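 Under IPTG (0.07 mM) plus kanamycin, or without selection, Escherichia coli carrying a UMI-tagged donor and donor-binding-loop pair library and a target plasmid for the IS621 bridge recombinase were plated in two replicates. Recombinant UMIs were PCR-amplified across the donor–target junction and sequenced. Counts were converted to CPM, averaged over replicates, scaled by control-derived factors and reported as log10(CPM+1).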
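Further: IS621 bridge recombinase in Escherichia coli cells against a fixed T5 target plasmid.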

With “AGTACGTCATGGACCGGTTTTCCCGGTAATCCGTATTTGTT (site AGTACGTCTAA)” the “recombinant UMI read abundance (log10)” value was 0.258.
For “AGTACGTCATGGACCGGTTTTCCCGGTAATCCGTATTTGTT (site CGTACGTCTAA)”, the “recombinant UMI read abundance (log10)” value was 0.552.
With “AGTACGTCATGGACCGGTTTTCCCGGTAATCCGTATTTGTT (site GGTACGTCTAA)” the “recombinant UMI read abundance (log10)” value was 0.198.
For “AGTACGTCATGGACCGGTTTTCCCGGTAATCCGTATTTGTT (site TGTACGTCTAA)”, the “recombinant UMI read abundance (log10)” value was 0.212.
For “AGTCCCACATGGACCGGTTTTCCCGGTAATCCGTATTTGAA (site AGTCCCACTTT)”, the “recombinant UMI read abundance (log10)” value was 0.752.
For “AGTCCGCCATGGACCGGTTTTCCCGGTAATCCGTATTTGGG (site AGTCCGCCTCC)”, the “recombinant UMI read abundance (log10)” value was 0.015.
For “AGTCGAGCATGGACCGGTTTTCCCGGTAATCCGTATTTGAG (site AGTCGAGCTCT)”, the “recombinant UMI read abundance (log10)” value was 1.6.
In the case of “AGTCTTACATGGACCGGTTTTCCCGGTAATCCGTATTTGCG (site AGTCTTACTCG)”, the “recombinant UMI read abundance (log10)” value is reported as 1.32.
With “AGTGAATCATGGACCGGTTTTCCCGGTAATCCGTATTTGAG (site AGTGAATCTCT)” the “recombinant UMI read abundance (log10)” value was 2.17.
In the case of “AGTGCTGCATGGACCGGTTTTCCCGGTAATCCGTATTTGCA (site AGTGCTGCTTG)”, the “recombinant UMI read abundance (log10)” value is reported as 1.21.
In the case of “AGTGGAACATGGACCGGTTTTCCCGGTAATCCGTATTTGTT (site AGTGGAACTAA)”, the “recombinant UMI read abundance (log10)” value is reported as 1.56.
For “AGTGGAACATGGACCGGTTTTCCCGGTAATCCGTATTTGTT (site CGTGGAACTAA)”, the “recombinant UMI read abundance (log10)” value was 0.295.
In the case of “AGTGGAACATGGACCGGTTTTCCCGGTAATCCGTATTTGTT (site GGTGGAACTAA)”, the “recombinant UMI read abundance (log10)” value is reported as 0.00617.
With “AGTGGAACATGGACCGGTTTTCCCGGTAATCCGTATTTGTT (site TGTGGAACTAA)” the “recombinant UMI read abundance (log10)” value was 0.00958.
In the case of “AGTGGGTCATGGACCGGTTTTCCCGGTAATCCGTATTTGCA (site AGTGGGTCTTG)”, the “recombinant UMI read abundance (log10)” value is reported as 2.92.
In the case of “AGTGTATCATGGACCGGTTTTCCCGGTAATCCGTATTTGCA (site ACAGTATCTTG)”, the “recombinant UMI read abundance (log10)” value is reported as 1.69.
With “AGTGTATCATGGACCGGTTTTCCCGGTAATCCGTATTTGCA (site AGTGTATCTTG)” the “recombinant UMI read abundance (log10)” value was 2.25.
With “AGTGTCACATGGACCGGTTTTCCCGGTAATCCGTATTTGGC (site AGTGTCACTGC)” the “recombinant UMI read abundance (log10)” value was 2.62.
For “AGTGTCTCATGGACCGGTTTTCCCGGTAATCCGTATTTGCA (site AGTGTCTCTTG)”, the “recombinant UMI read abundance (log10)” value was 3.07.
In the case of “AGTTAGACATGGACCGGTTTTCCCGGTAATCCGTATTTGAG (site AGTTAGACTCT)”, the “recombinant UMI read abundance (log10)” value is reported as 1.23.
For “AGTTAGACATGGACCGGTTTTCCCGGTAATCCGTATTTGAG (site CGTTAGACTCT)”, the “recombinant UMI read abundance (log10)” value was 1.06.
In the case of “AGTTAGACATGGACCGGTTTTCCCGGTAATCCGTATTTGAG (site GGTTAGACTCT)”, the “recombinant UMI read abundance (log10)” value is reported as 0.353.
In the case of “AGTTAGACATGGACCGGTTTTCCCGGTAATCCGTATTTGAG (site TGTTAGACTCT)”, the “recombinant UMI read abundance (log10)” value is reported as 0.674.
With “AGTTATTCATGGACCGGTTTTCCCGGTAATCCGTATTTGCA (site AGTTATTCTTG)” the “recombinant UMI read abundance (log10)” value was 2.11.
For “AGTTCAGCATGGACCGGTTTTCCCGGTAATCCGTATTTGGG (site AGATCAGCTCC)”, the “recombinant UMI read abundance (log10)” value was 0.0116.
In the case of “AGTTCAGCATGGACCGGTTTTCCCGGTAATCCGTATTTGGG (site AGCTCAGCTCC)”, the “recombinant UMI read abundance (log10)” value is reported as 0.0322.
With “AGTTCAGCATGGACCGGTTTTCCCGGTAATCCGTATTTGGG (site AGGTCAGCTCC)” the “recombinant UMI read abundance (log10)” value was 0.0161.
In the case of “AGTTCAGCATGGACCGGTTTTCCCGGTAATCCGTATTTGGG (site AGTTCAGCTCC)”, the “recombinant UMI read abundance (log10)” value is reported as 0.017.
For “AGTTCTGCATGGACCGGTTTTCCCGGTAATCCGTATTTGTT (site AGTTCTGCTAA)”, the “recombinant UMI read abundance (log10)” value was 0.0478.
For “AGTTGATCATGGACCGGTTTTCCCGGTAATCCGTATTTGTC (site AGTTGATCTGA)”, the “recombinant UMI read abundance (log10)” value was 1.94.
For “ATAAAATCATGGACCGGTTTTCCCGGTAATCCGTATTTGCC (site ATAAAATCTGG)”, the “recombinant UMI read abundance (log10)” value was 1.66.
With “ATAAAGCCATGGACCGGTTTTCCCGGTAATCCGTATTTGAC (site ATAAAGCCTGT)” the “recombinant UMI read abundance (log10)” value was 0.
With “ATAAAGCCATGGACCGGTTTTCCCGGTAATCCGTATTTGAC (site ATAACGCCTGT)” the “recombinant UMI read abundance (log10)” value was 0.
For “ATAAAGCCATGGACCGGTTTTCCCGGTAATCCGTATTTGAC (site ATAAGGCCTGT)”, the “recombinant UMI read abundance (log10)” value was 0.
In the case of “ATAAAGCCATGGACCGGTTTTCCCGGTAATCCGTATTTGAC (site ATAATGCCTGT)”, the “recombinant UMI read abundance (log10)” value is reported as 0.
With “ATAACAACATGGACCGGTTTTCCCGGTAATCCGTATTTGAA (site ATAACAACTTT)” the “recombinant UMI read abundance (log10)” value was 1.46.
In the case of “ATAACAGCATGGACCGGTTTTCCCGGTAATCCGTATTTGTT (site ATAACAGCTAA)”, the “recombinant UMI read abundance (log10)” value is reported as 1.92.
In the case of “ATAACGCCATGGACCGGTTTTCCCGGTAATCCGTATTTGAC (site ATAAAGCCTGT)”, the “recombinant UMI read abundance (log10)” value is reported as 0.
In the case of “ATAACGCCATGGACCGGTTTTCCCGGTAATCCGTATTTGAC (site ATAACGCCTGT)”, the “recombinant UMI read abundance (log10)” value is reported as 0.696.
In the case of “ATAACGCCATGGACCGGTTTTCCCGGTAATCCGTATTTGAC (site ATAAGGCCTGT)”, the “recombinant UMI read abundance (log10)” value is reported as 0.
For “ATAACGCCATGGACCGGTTTTCCCGGTAATCCGTATTTGAC (site ATAATGCCTGT)”, the “recombinant UMI read abundance (log10)” value was 0.
For “ATAAGACCATGGACCGGTTTTCCCGGTAATCCGTATTTGAC (site ATAAGACCTGT)”, the “recombinant UMI read abundance (log10)” value was 0.
With “ATAAGACCATGGACCGGTTTTCCCGGTAATCCGTATTTGAC (site ATAAGCCCTGT)” the “recombinant UMI read abundance (log10)” value was 0.
With “ATAAGACCATGGACCGGTTTTCCCGGTAATCCGTATTTGAC (site ATAAGGCCTGT)” the “recombinant UMI read abundance (log10)” value was 0.
With “ATAAGACCATGGACCGGTTTTCCCGGTAATCCGTATTTGAC (site ATAAGTCCTGT)” the “recombinant UMI read abundance (log10)” value was 0.
For “ATAAGGCCATGGACCGGTTTTCCCGGTAATCCGTATTTGAC (site AAAAGGCCTGT)”, the “recombinant UMI read abundance (log10)” value was 0.
With “ATAAGGCCATGGACCGGTTTTCCCGGTAATCCGTATTTGAC (site ACAAGGCCTGT)” the “recombinant UMI read abundance (log10)” value was 0.
With “ATAAGGCCATGGACCGGTTTTCCCGGTAATCCGTATTTGAC (site AGAAGGCCTGT)” the “recombinant UMI read abundance (log10)” value was 0.
For “ATAAGGCCATGGACCGGTTTTCCCGGTAATCCGTATTTGAC (site ATAAAGCCTGT)”, the “recombinant UMI read abundance (log10)” value was 0.
In the case of “ATAAGGCCATGGACCGGTTTTCCCGGTAATCCGTATTTGAC (site ATAACGCCTGT)”, the “recombinant UMI read abundance (log10)” value is reported as 0.0185.
For “ATAAGGCCATGGACCGGTTTTCCCGGTAATCCGTATTTGAC (site ATAAGACCTGT)”, the “recombinant UMI read abundance (log10)” value was 0.
With “ATAAGGCCATGGACCGGTTTTCCCGGTAATCCGTATTTGAC (site ATAAGCCCTGT)” the “recombinant UMI read abundance (log10)” value was 0.
For “ATAAGGCCATGGACCGGTTTTCCCGGTAATCCGTATTTGAC (site ATAAGGACTGT)”, the “recombinant UMI read abundance (log10)” value was 0.956.
With “ATAAGGCCATGGACCGGTTTTCCCGGTAATCCGTATTTGAC (site ATAAGGCCTAT)” the “recombinant UMI read abundance (log10)” value was 0.214.
With “ATAAGGCCATGGACCGGTTTTCCCGGTAATCCGTATTTGAC (site ATAAGGCCTCT)” the “recombinant UMI read abundance (log10)” value was 0.0671.
For “ATAAGGCCATGGACCGGTTTTCCCGGTAATCCGTATTTGAC (site ATAAGGCCTGA)”, the “recombinant UMI read abundance (log10)” value was 0.
For “ATAAGGCCATGGACCGGTTTTCCCGGTAATCCGTATTTGAC (site ATAAGGCCTGC)”, the “recombinant UMI read abundance (log10)” value was 0.147.
In the case of “ATAAGGCCATGGACCGGTTTTCCCGGTAATCCGTATTTGAC (site ATAAGGCCTGG)”, the “recombinant UMI read abundance (log10)” value is reported as 0.
For “ATAAGGCCATGGACCGGTTTTCCCGGTAATCCGTATTTGAC (site ATAAGGCCTGT)”, the “recombinant UMI read abundance (log10)” value was 0.
For “ATAAGGCCATGGACCGGTTTTCCCGGTAATCCGTATTTGAC (site ATAAGGCCTTT)”, the “recombinant UMI read abundance (log10)” value was 0.131.
For “ATAAGGCCATGGACCGGTTTTCCCGGTAATCCGTATTTGAC (site ATAAGGGCTGT)”, the “recombinant UMI read abundance (log10)” value was 0.
With “ATAAGGCCATGGACCGGTTTTCCCGGTAATCCGTATTTGAC (site ATAAGGTCTGT)” the “recombinant UMI read abundance (log10)” value was 1.87.
With “ATAAGGCCATGGACCGGTTTTCCCGGTAATCCGTATTTGAC (site ATAAGTCCTGT)” the “recombinant UMI read abundance (log10)” value was 0.
In the case of “ATAAGGCCATGGACCGGTTTTCCCGGTAATCCGTATTTGAC (site ATAATGCCTGT)”, the “recombinant UMI read abundance (log10)” value is reported as 0.
With “ATAAGGCCATGGACCGGTTTTCCCGGTAATCCGTATTTGAC (site ATACGGCCTGT)” the “recombinant UMI read abundance (log10)” value was 0.
With “ATAAGGCCATGGACCGGTTTTCCCGGTAATCCGTATTTGAC (site ATAGGGCCTGT)” the “recombinant UMI read abundance (log10)” value was 0.
With “ATAAGGCCATGGACCGGTTTTCCCGGTAATCCGTATTTGAC (site ATATGGCCTGT)” the “recombinant UMI read abundance (log10)” value was 0.00516.
For “ATAAGGCCATGGACCGGTTTTCCCGGTAATCCGTATTTGAC (site ATCAGGCCTGT)”, the “recombinant UMI read abundance (log10)” value was 0.
For “ATAAGGCCATGGACCGGTTTTCCCGGTAATCCGTATTTGAC (site ATGAGGCCTGT)”, the “recombinant UMI read abundance (log10)” value was 0.
With “ATAAGGCCATGGACCGGTTTTCCCGGTAATCCGTATTTGAC (site ATTAGGCCTGT)” the “recombinant UMI read abundance (log10)” value was 0.
For “ATAAGGCCATGGACCGGTTTTCCCGGTAATCCGTATTTGAC (site CTAAGGCCTGT)”, the “recombinant UMI read abundance (log10)” value was 0.
In the case of “ATAAGGCCATGGACCGGTTTTCCCGGTAATCCGTATTTGAC (site GTAAGGCCTGT)”, the “recombinant UMI read abundance (log10)” value is reported as 0.
For “ATAAGGCCATGGACCGGTTTTCCCGGTAATCCGTATTTGAC (site TTAAGGCCTGT)”, the “recombinant UMI read abundance (log10)” value was 0.
For “ATAAGGCCATGGACCGGTTTTCCCGGTAATCCGTATTTGCC (site ATAAGGCCTGA)”, the “recombinant UMI read abundance (log10)” value was 0.
For “ATAAGGCCATGGACCGGTTTTCCCGGTAATCCGTATTTGCC (site ATAAGGCCTGC)”, the “recombinant UMI read abundance (log10)” value was 0.
